ChEMBL document CHEMBL3763108, “Application of PEG-400 as a green biodegradable polymeric medium for the catalyst-free synthesis of spiro-dihydropyridines and their use as acetyl and butyrylcholinesterase inhibitors” (Bioorg Med Chem, 2016)

Experiments:
Cholinesterase = Cholinesterase (Homo sapiens, UniProt P06276); assay: Inhibition of BChE (unknown origin) using acetylthiocholine as substrate assessed as reduction of DTNB to TNB preincubated for 20 mins followed by addition of substrate by Ellman's kinetic method
Acetylcholinesterase = Acetylcholinesterase (Homo sapiens, UniProt P22303); assay: Inhibition of AChE (unknown origin) using acetylthiocholine as substrate assessed as reduction of DTNB to TNB preincubated for 20 mins followed by addition of substrate by Ellman's kinetic method
[1] = biological target: T1, Cholinesterases; ACHE & BCHE (Homo sapiens) (UniProt P06276+P22303); assay: Selectivity ratio of IC50 for AChE (unknown origin) to IC50 for BChE (unknown origin) by Ellman's kinetic method
[2] = biological target: T1, Cholinesterases; ACHE & BCHE (Homo sapiens); assay: Selectivity ratio of IC50 for BChE (unknown origin) to IC50 for AChE (unknown origin) by Ellman's kinetic method

Chain of Acetylcholinesterase (P22303 whole entry): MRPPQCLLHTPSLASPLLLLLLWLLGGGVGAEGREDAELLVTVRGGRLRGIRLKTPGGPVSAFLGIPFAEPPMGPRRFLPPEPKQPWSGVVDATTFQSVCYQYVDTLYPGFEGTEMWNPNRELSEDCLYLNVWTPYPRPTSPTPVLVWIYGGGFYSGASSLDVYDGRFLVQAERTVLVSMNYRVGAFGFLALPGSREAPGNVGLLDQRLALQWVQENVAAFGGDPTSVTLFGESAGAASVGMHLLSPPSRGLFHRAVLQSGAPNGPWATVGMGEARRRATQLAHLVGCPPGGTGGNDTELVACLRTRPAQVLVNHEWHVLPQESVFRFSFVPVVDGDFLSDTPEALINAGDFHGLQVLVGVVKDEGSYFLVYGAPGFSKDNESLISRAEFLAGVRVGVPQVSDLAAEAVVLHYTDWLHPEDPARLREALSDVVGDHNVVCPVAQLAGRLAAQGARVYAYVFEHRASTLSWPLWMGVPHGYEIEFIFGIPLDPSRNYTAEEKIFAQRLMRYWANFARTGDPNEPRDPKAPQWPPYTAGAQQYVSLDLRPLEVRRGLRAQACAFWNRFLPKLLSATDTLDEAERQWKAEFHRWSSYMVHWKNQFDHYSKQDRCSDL
Chain of Cholinesterase (P06276 whole entry): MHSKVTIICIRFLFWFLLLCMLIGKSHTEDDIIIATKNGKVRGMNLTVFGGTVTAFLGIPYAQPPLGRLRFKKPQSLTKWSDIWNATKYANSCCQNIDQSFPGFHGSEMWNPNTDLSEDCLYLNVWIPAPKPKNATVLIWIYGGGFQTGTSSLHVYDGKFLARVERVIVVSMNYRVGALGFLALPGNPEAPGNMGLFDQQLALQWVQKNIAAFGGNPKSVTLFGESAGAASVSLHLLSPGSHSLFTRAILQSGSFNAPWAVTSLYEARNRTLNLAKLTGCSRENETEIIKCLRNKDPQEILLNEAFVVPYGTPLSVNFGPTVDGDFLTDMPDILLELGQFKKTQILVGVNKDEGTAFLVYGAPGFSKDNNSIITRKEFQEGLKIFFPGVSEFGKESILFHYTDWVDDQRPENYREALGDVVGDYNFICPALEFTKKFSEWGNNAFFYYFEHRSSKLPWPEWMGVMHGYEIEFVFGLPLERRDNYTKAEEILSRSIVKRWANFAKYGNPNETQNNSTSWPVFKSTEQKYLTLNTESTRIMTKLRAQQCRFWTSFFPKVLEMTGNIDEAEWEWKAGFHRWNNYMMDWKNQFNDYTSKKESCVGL
T1 sequence (P06276 whole entry, looked up): as the sequence (P06276 whole entry) above
T1 sequence (P22303 whole entry, looked up): as the sequence (P22303 whole entry) above

| SMILES | IC50 (Cholinesterase) | IC50 (Acetylcholinesterase) | Ratio IC50 [1] | Ratio IC50 [2] |
| --- | --- | --- | --- | --- |
| Cc1ccc2c(c1)C1(C(=O)N2)C(C#N)=C(N)N2CC(C)(C)CNC2=C1[N+](=O)[O-] (stereo not drawn) | 14.7 µM | 1.39 µM | 0.095 | 10.6 |
| CC1(C)CNC2=C([N+](=O)[O-])C3(C(=O)Nc4ccc(F)cc43)C(C#N)=C(N)N2C1 (stereo not drawn) | 15.9 µM | 1.07 µM | 0.067 | 14.9 |
| N#CC1=C(N)N2CCNC2=C([N+](=O)[O-])C12C(=O)Nc1ccc([N+](=O)[O-])cc12 (stereo not drawn) | 14.1 µM | 3.24 µM | 0.23 | 4.34 |
| N#CC1=C(N)N2CCNC2=C([N+](=O)[O-])C12C(=O)c1cccc3cccc2c13 (stereo not drawn) | 23.8 µM | 7.08 µM | 0.298 | 3.36 |
| Cc1ccc2c(c1)C1(C(=O)N2)C(C#N)=C(N)N2CCNC2=C1[N+](=O)[O-] (stereo not drawn) | 16.2 µM | 3.86 µM | 0.238 | 4.21 |
| CC1(C)CNC2=C([N+](=O)[O-])C3(C(=O)c4ccc(Br)c5c(Br)ccc3c45)C(C#N)=C(N)N2C1 (stereo not drawn) | 23.8 µM | 5.98 µM | 0.251 | 3.98 |
| N#CC1=C(N)N2CCNC2=C([N+](=O)[O-])C12C(=O)c1ccc(Br)c3c(Br)ccc2c13 (stereo not drawn) | 26 µM | 6.37 µM | 0.245 | 4.09 |
| CC1(C)CNC2=C([N+](=O)[O-])C3(C(=O)Nc4ccc([N+](=O)[O-])cc43)C(C#N)=C(N)N2C1 (stereo not drawn) | 11.9 µM | 1.54 µM | 0.13 | 7.71 |
| N#CC1=C(N)N2CCCNC2=C([N+](=O)[O-])C12C(=O)c1ccc(Br)c3c(Br)ccc2c13 (stereo not drawn) | 24.7 µM | 6.71 µM | 0.272 | 3.68 |
| N#CC1=C(N)N2CCNC2=C([N+](=O)[O-])C12C(=O)Nc1ccccc12 (stereo not drawn) | 13.5 µM | 4.85 µM | 0.36 | 2.77 |
| COc1ccc2c3c1O[C@H]1CC(O)CC[C@@]31CCN(C)C2 (stereo partly drawn) | – | – | 0.196 | 5.12 |
| Cc1ccc2c(c1)C1(C(=O)N2)C(C#N)=C(N)N(Cc2ccccc2)C(NCc2ccccc2)=C1[N+](=O)[O-] (stereo not drawn) | 13.5 µM | 3.71 µM | 0.275 | 3.64 |
| N#CC1=C(N)N(Cc2ccccc2)C(NCc2ccccc2)=C([N+](=O)[O-])C12C(=O)Nc1ccc(F)cc12 (stereo not drawn) | 15.1 µM | 3.54 µM | 0.235 | 4.26 |
| N#CC1=C(N)N(Cc2ccccc2)C(NCc2ccccc2)=C([N+](=O)[O-])C12C(=O)c1cccc3cccc2c13 (stereo not drawn) | 23.8 µM | 5.96 µM | 0.25 | 4 |
| N#CC1=C(N)N(Cc2ccccc2)C(NCc2ccccc2)=C([N+](=O)[O-])C12C(=O)Nc1ccccc12 (stereo not drawn) | 15.3 µM | 3.96 µM | 0.259 | 3.86 |
| N#CC1=C(N)N2CCNC2=C([N+](=O)[O-])C12C(=O)Nc1ccc(F)cc12 (stereo not drawn) | 16.8 µM | 3.29 µM | 0.195 | 5.12 |
| CC1(C)CNC2=C([N+](=O)[O-])C3(C(=O)c4cccc5cccc3c45)C(C#N)=C(N)N2C1 (stereo not drawn) | 25.4 µM | 7.71 µM | 0.303 | 3.3 |
| N#CC1=C(N)N2CCCNC2=C([N+](=O)[O-])C12C(=O)Nc1ccc([N+](=O)[O-])cc12 (stereo not drawn) | 12.4 µM | 1.15 µM | 0.092 | 10.8 |
| N#CC1=C(N)N(Cc2ccccc2)C(NCc2ccccc2)=C([N+](=O)[O-])C12C(=O)c1ccc(Br)c3c(Br)ccc2c13 (stereo not drawn) | 26.6 µM | 6.24 µM | 0.235 | 4.26 |
| N#CC1=C(N)N(Cc2ccccc2)C(NCc2ccccc2)=C([N+](=O)[O-])C12C(=O)Nc1ccc([N+](=O)[O-])cc12 (stereo not drawn) | 15 µM | 3.37 µM | 0.225 | 4.44 |
| Cc1ccc2c(c1)C1(C(=O)N2)C(C#N)=C(N)N2CCCNC2=C1[N+](=O)[O-] (stereo not drawn) | 12.3 µM | 0.94 µM | 0.076 | 13.1 |
| CC1(C)CNC2=C([N+](=O)[O-])C3(C(=O)Nc4ccccc43)C(C#N)=C(N)N2C1 (stereo not drawn) | 10.4 µM | 1.25 µM | 0.12 | 8.34 |
| N#CC1=C(N)N2CCCNC2=C([N+](=O)[O-])C12C(=O)Nc1ccc(F)cc12 (stereo not drawn) | 14.7 µM | 0.42 µM | 0.029 | 35 |
| N#CC1=C(N)N2CCCNC2=C([N+](=O)[O-])C12C(=O)Nc1ccccc12 (stereo not drawn) | 8.93 µM | 1.02 µM | 0.114 | 8.76 |
| N#CC1=C(N)N2CCCNC2=C([N+](=O)[O-])C12C(=O)c1cccc3cccc2c13 (stereo not drawn) | 26.1 µM | 6.59 µM | 0.252 | 3.96 |
